Key:
[1] = test system: barnyard grass; test: Test Example 3: herbicidal effect by foliage application, Wagner pot (Table 18, symbol H); assay type: in vivo, barnyard grass (Echinochloa crus-galli); details: for herbicidal effect on barnyard grass (H): 320 g/ha
Outline: (§1)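 Plants were sown in alluvial soil held under 0.1–0.5 cm standing water and grown 14 days in a greenhouse at 25–30 °C. An emulsifiable formulation, water-diluted to the set dose, was then sprayed onto the foliage, and effects were scored three weeks later using previously defined criteria.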

[2] = test system: Chinese sprangletop; test: Test Example 3: herbicidal effect by foliage application, Wagner pot (Table 18, symbol D); assay type: in vivo, chinese sprangletop (Leptochloa chinensis); details: for herbicidal effect on Chinese sprangletop (D): 320 g/ha
Outline: as §1

[3] = test system: rice flat sedge; test: Test Example 3: herbicidal effect by foliage application, Wagner pot (Table 18, symbol E); assay type: in vivo, rice flat sedge (Cyperus iria); details: for herbicidal effect on rice flat sedge (E): 320 g/ha
Outline: as §1

[4] = test system: southern crabgrass; test: Test Example 4: herbicidal effect by soil treatment (Table 19, symbol F); assay type: in vivo, southern crabgrass (Digitaria ciliaris); details: amount of applied herbicide 320 g/ha
Outline: (§2)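 Soil-surface application: an emulsion agent diluted with water to the predetermined dose is sprayed uniformly over seeds lying under roughly 1.5 cm of sterilized diluvial soil. Boxes stay in a greenhouse at 25° C. to 30° C. Three weeks later, each species is graded on previously defined criteria.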

[5] = test system: green foxtail; test: Test Example 4: herbicidal effect by soil treatment (Table 19, symbol G); assay type: in vivo, green foxtail (Setaria viridis); details: amount of applied herbicide 320 g/ha
Outline: as §2

[6] = test system: barnyard grass; test: Test Example 4: herbicidal effect by soil treatment (Table 19, symbol H); assay type: in vivo, barnyard grass (Echinochloa crus-galli); details: amount of applied herbicide 320 g/ha
Description: (§3) [Test Example 4] Herbicidal Effect Test by Soil Treatment
(§4) Sterilized diluvial soil was placed in a plastic box having a length of 21 cm, a width of 13 cm, and a depth of 7 cm. The seeds of each of southern crabgrass, green foxtail, barnyard grass, wild oat, blackgrass, Italian ryegrass, windgrass, velvetleaf, redroot pigweed, lambsquarters, chickweed, false cleavers, persian speedwell, corn, soybean, rice, wheat, beet, and rapeseed were sowed in a spot-like manner and covered with the soil having a thickness of about 1.5 cm. Subsequently, the emulsion agent of the compound of the present invention prepared according to Formulation Example 2 was diluted with water so as to achieve a predetermined herbicide amount, and the diluted emulsion agent was uniformly applied to the surface of the soil with a small-sized spray. The plastic box was placed in a greenhouse at 25° C. to 30° C. for growth of the plants. Three weeks after the herbicide application, the effect of the herbicide on each plant was evaluated according to the criteria of Test Example 1.

[7] = test system: velvetleaf; test: Test Example 4: herbicidal effect by soil treatment (Table 19, symbol M); assay type: in vivo, velvetleaf (Abutilon theophrasti); details: amount of applied herbicide 320 g/ha
Description: as §3, §4

[8] = test system: redroot pigweed; test: Test Example 4: herbicidal effect by soil treatment (Table 19, symbol N); assay type: in vivo, redroot pigweed (Amaranthus retroflexus); details: amount of applied herbicide 320 g/ha
Description: as §3, §4

[9] = test system: lambsquarters; test: Test Example 4: herbicidal effect by soil treatment (Table 19, symbol O); assay type: in vivo, lambsquarters (Chenopodium album); details: amount of applied herbicide 320 g/ha
Outline: as §2

[10] = test system: southern crabgrass; test: Test Example 5: herbicidal effect by foliage application, plastic box (Table 20, symbol F); assay type: in vivo, southern crabgrass (Digitaria ciliaris)
Outline: (§5)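 Sow seeds spot-wise in sterilized diluvial soil; cover with ~1.5 cm soil. Grow 14 days in greenhouse, 25° C. to 30° C. Spray foliage with emulsion diluted to predetermined amount. Rate effect after 3 weeks.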

[11] = test system: green foxtail; test: Test Example 5: herbicidal effect by foliage application, plastic box (Table 20, symbol G); assay type: in vivo, green foxtail (Setaria viridis)
Outline: as §5

[12] = test system: barnyard grass; test: Test Example 5: herbicidal effect by foliage application, plastic box (Table 20, symbol H); assay type: in vivo, barnyard grass (Echinochloa crus-galli)
Outline: as §5

[13] = test system: velvetleaf; test: Test Example 5: herbicidal effect by foliage application, plastic box (Table 20, symbol M); assay type: in vivo, velvetleaf (Abutilon theophrasti)
Outline: as §5

[14] = test system: redroot pigweed; test: Test Example 5: herbicidal effect by foliage application, plastic box (Table 20, symbol N); assay type: in vivo, redroot pigweed (Amaranthus retroflexus)
Outline: as §5

[15] = test system: lambsquarters; test: Test Example 5: herbicidal effect by foliage application, plastic box (Table 20, symbol O); assay type: in vivo, lambsquarters (Chenopodium album)
Outline: as §5

[16] = test system: wild oat; test: Test Example 5: herbicidal effect by foliage application, plastic box (Table 20, symbol I); assay type: in vivo, wild oat (Avena fatua); details: foliage application after 14-day growth, evaluated three weeks after application
Outline: as §5

[17] = test system: Italian ryegrass; test: Test Example 5: herbicidal effect by foliage application, plastic box (Table 20, symbol K); assay type: in vivo, Italian ryegrass (Lolium multiflorum); details: foliage application after 14-day growth, evaluated three weeks after application
Outline: as §5

[18] = test system: windgrass; test: Test Example 5: herbicidal effect by foliage application, plastic box (Table 20, symbol L); assay type: in vivo, windgrass (Apera spica-venti); details: foliage application after 14-day growth, evaluated three weeks after application
Outline: as §5

[19] = test system: chickweed; test: Test Example 5: herbicidal effect by foliage application, plastic box (Table 20, symbol P); assay type: in vivo, common chickweed (Stellaria media); details: foliage application after 14-day growth, evaluated three weeks after application
Description: [Test Example 5] Herbicidal Effect Test by Foliage Application
as §4, with “Thereafter, the plants were grown in a greenhouse at 25° C. to 30° C. After 14-day growth of the plants,” for “Subsequently,”, “a foliage part” for “the surface of the soil”, “spray.” for “spray. The plastic box was placed in a greenhouse at 25° C. to 30° C. for growth of the plants.”

[20] = test system: persian speedwell; test: Test Example 5: herbicidal effect by foliage application, plastic box (Table 20, symbol R); assay type: in vivo, Persian speedwell (Veronica persica); details: 320 g/ha, foliage application after 14-day growth, evaluated three weeks after application
Outline: as §5

[21] = test system: blackgrass; test: Test Example 5: herbicidal effect by foliage application, plastic box (Table 20, symbol J); assay type: in vivo, blackgrass (Alopecurus myosuroides); details: amount of applied herbicide 320 g/ha; foliage application after 14-day growth; evaluated three weeks after application
Outline: as §5

[22] = amount of applied herbicide 320 g/ha
[23] = foliage application, 320 g/ha, three weeks after application
[24] = 320 g/ha, foliage application after 14-day growth, evaluated three weeks after application
[25] = amount of applied herbicide 320 g/ha, foliage application after 14-day growth, evaluated three weeks after application

## Cc1nn(C)c(=O)c(-c2c(-c3ccsc3)sc3ccc(F)cc23)c1O [2-463]
[1]; [22]
  herbicidal effect on H: barnyard grass: 3 (Herbicidal rate of 40% or more and less than 70%)
[2]; [22]
  herbicidal effect on D: Chinese sprangletop: 0 (Herbicidal rate of 5% or less (almost no effect))
[3]; [22]
  herbicidal effect on E: rice flat sedge: 0 (Herbicidal rate of 5% or less (almost no effect))
[4]
  herbicidal effect, F: southern crabgrass: 2 (Herbicidal rate of 20% or more and less than 40%)
[5]
  herbicidal effect, G: green foxtail: 0 (Herbicidal rate of 5% or less (almost no effect))
[6]
  herbicidal effect, H: barnyard grass: 3 (Herbicidal rate of 40% or more and less than 70%)
[7]
  herbicidal effect, M: velvetleaf: 3 (Herbicidal rate of 40% or more and less than 70%)
[8]
  herbicidal effect, N: redroot pigweed: 4 (Herbicidal rate of 70% or more and less than 90%)
[9]
  herbicidal effect, O: lambsquarters: 3 (Herbicidal rate of 40% or more and less than 70%)
[10]; [23]
  F: southern crabgrass, herbicidal effect grade: 4 (Herbicidal rate of 70% or more and less than 90%)
[11]; [23]
  G: green foxtail, herbicidal effect grade: 3 (Herbicidal rate of 40% or more and less than 70%)
[12]; [23]
  H: barnyard grass, herbicidal effect grade: 3 (Herbicidal rate of 40% or more and less than 70%)
[13]; [23]
  M: velvetleaf, herbicidal effect grade: 5 (Herbicidal rate of 90% or more (almost completely withered))
[14]; [23]
  N: redroot pigweed, herbicidal effect grade: 5 (Herbicidal rate of 90% or more (almost completely withered))
[15]; [23]
  O: lambsquarters, herbicidal effect grade: 3 (Herbicidal rate of 40% or more and less than 70%)

## CCCC(=O)Oc1c(C)nn(C)c(=O)c1-c1c(-c2ccc(OC)c(OC)c2)sc2c(F)cccc12 [4-014]
[1]
  herbicidal effect on barnyard grass (H): 3 (Herbicidal rate of 40% or more and less than 70%)
[2]
  herbicidal effect on Chinese sprangletop (D): 0 (Herbicidal rate of 5% or less (almost no effect))
[3]
  herbicidal effect on rice flat sedge (E): 0 (Herbicidal rate of 5% or less (almost no effect))
[10]; [24]
  herbicidal effect on F: southern crabgrass (evaluation grade 0-5): 0 (Herbicidal rate of 5% or less (almost no effect))
[11]; [24]
  herbicidal effect on G: green foxtail (evaluation grade 0-5): 4 (Herbicidal rate of 70% or more and less than 90%)
[12]; [24]
  herbicidal effect on H: barnyard grass (evaluation grade 0-5): 2 (Herbicidal rate of 20% or more and less than 40%)
[16]; 320 g/ha
  herbicidal effect on I: wild oat (evaluation grade 0-5): 0 (Herbicidal rate of 5% or less (almost no effect))
[17]; 320 g/ha
  herbicidal effect on K: Italian ryegrass (evaluation grade 0-5): 1 (Herbicidal rate of 5% or more and less than 20%)
[18]; 320 g/ha
  herbicidal effect on L: windgrass (evaluation grade 0-5): 0 (Herbicidal rate of 5% or less (almost no effect))
[13]; [24]
  herbicidal effect on M: velvetleaf (evaluation grade 0-5): 3 (Herbicidal rate of 40% or more and less than 70%)
[14]; [24]
  herbicidal effect on N: redroot pigweed (evaluation grade 0-5): 1 (Herbicidal rate of 5% or more and less than 20%)
[15]; [24]
  herbicidal effect on O: lambsquarters (evaluation grade 0-5): 0 (Herbicidal rate of 5% or less (almost no effect))
[19]; 320 g/ha
  herbicidal effect on P: chickweed (evaluation grade 0-5): 5 (Herbicidal rate of 90% or more (almost completely withered))
[20]
  herbicidal effect on R: persian speedwell (evaluation grade 0-5): 3 (Herbicidal rate of 40% or more and less than 70%)

## Cc1nn(C)c(=O)c(-c2c(-c3cccc(C(F)(F)F)c3)sc3c(Cl)cccc23)c1O [4-072]
[1]
  herbicidal effect on barnyard grass (H): 3 (Herbicidal rate of 40% or more and less than 70%)
[2]
  herbicidal effect on Chinese sprangletop (D): 3 (Herbicidal rate of 40% or more and less than 70%)
[3]
  herbicidal effect on rice flat sedge (E): 4 (Herbicidal rate of 70% or more and less than 90%)
[10]; [25]
  Herbicidal effect by foliage application, F: southern crabgrass: 4 (Herbicidal rate of 70% or more and less than 90%)
[11]; [25]
  Herbicidal effect by foliage application, G: green foxtail: 3 (Herbicidal rate of 40% or more and less than 70%)
[12]; [25]
  Herbicidal effect by foliage application, H: barnyard grass: 1 (Herbicidal rate of 5% or more and less than 20%)
[16]; [22]
  Herbicidal effect by foliage application, I: wild oat: 0 (Herbicidal rate of 5% or less (almost no effect))
[21]
  Herbicidal effect by foliage application, J: blackgrass: 0 (Herbicidal rate of 5% or less (almost no effect))
[17]; [22]
  Herbicidal effect by foliage application, K: Italian ryegrass: 1 (Herbicidal rate of 5% or more and less than 20%)
[18]; [22]
  Herbicidal effect by foliage application, L: windgrass: 0 (Herbicidal rate of 5% or less (almost no effect))
[13]; [25]
  Herbicidal effect by foliage application, M: velvetleaf: 3 (Herbicidal rate of 40% or more and less than 70%)
[14]; [25]
  Herbicidal effect by foliage application, N: redroot pigweed: 5 (Herbicidal rate of 90% or more (almost completely withered))
[15]; [25]
  Herbicidal effect by foliage application, O: lambsquarters: 2 (Herbicidal rate of 20% or more and less than 40%)
[19]; [22]
  Herbicidal effect by foliage application, P: chickweed: 5 (Herbicidal rate of 90% or more (almost completely withered))

— patent US20230085307A1, “PYRIDAZINONE COMPOUND AND HERBICIDE” (NISSAN CHEMICAL CORPORATION, priority 2019, published 2023)
